Assay results published in PubChem BioAssay AID1884 (NMMLSC, 2009).
Active and inactive are the calls of the source. The rule behind the calls is not given here.

Biological target: Regulator of G-protein signaling 19 (Homo sapiens) (UniProt P49795)
Assay: RGS19-Gαo interaction regulators, potency – biochemical, multiplexed bead flow cytometry, dose response (AID 1884)
Settings: bead-based flow cytometry RGS19-Galphao binding

Regulator of G-protein signaling 19 (Homo sapiens), sequence (P49795 whole entry, looked up): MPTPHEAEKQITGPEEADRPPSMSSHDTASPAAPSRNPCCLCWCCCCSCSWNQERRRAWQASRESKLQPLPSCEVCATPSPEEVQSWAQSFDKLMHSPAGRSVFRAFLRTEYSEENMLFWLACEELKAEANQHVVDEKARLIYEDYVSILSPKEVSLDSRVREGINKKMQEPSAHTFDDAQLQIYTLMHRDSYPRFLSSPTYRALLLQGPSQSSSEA

Q: For `O=c1[nH]c(=S)n(Cc2ccco2)c(O)c1C=NCc1cccs1`, which EC50 is on record?
A: > 30000 nM (inactive)

Q: Which EC50 does the source give for `CCOC(=O)C1=C(C)NC(C)=C(C(=O)OCCNC(=O)c2cccnc2)C1c1cccc([N+](=O)[O-])c1` (configuration not stated) here?
A: > 30000 nM (inactive)

Q: How did the EC50 turn out when `COc1ccc(Br)cc1/C=N/Nc1cccc(C(=O)O)c1` was run?
A: > 30000 nM (inactive)

Q: With `CCOC(=O)/C(C(=O)Nc1ccccc1Cl)=C1/NC(C)(C)Cc2ccccc21` as the compound, how does the EC50 read?
A: > 30000 nM (inactive)

Q: With `CC(C)Sc1nc2ccc(N3C(=O)C4CCCCC4C3=O)cc2s1` (configuration not stated) as the compound, how does the EC50 read?
A: > 30000 nM (inactive)

Q: `O=C1CCCC2=C1C(c1cccs1)n1ncnc1N2` (configuration not stated) was tested. Which EC50 did it give?
A: > 30000 nM (inactive)

Q: `CCOC(=O)N=Nc1c(O)n(C)c2ccccc12` was tested. Which EC50 did it give?
A: > 30000 nM (inactive)

Q: Which EC50 does the source give for `CN(C)[C@@H]1C(=O)C(C(=O)NCN2CCCC2)=C(O)[C@@]2(O)C(=O)C3=C(O)c4c(O)cccc4[C@@](C)(O)C3CC12` (some centres not stated) here?
A: 7530 nM

Q: How did the EC50 turn out when `NS(=O)(=O)c1ccc(N/N=C/c2ccc(O)c(O)c2O)c([N+](=O)[O-])c1` was run?
A: 680 nM

Same assay, conditions: bead-based flow cytometry RGS19-Galphao binding; measured here: Ki for RGS19-Galphao

Q: `O=C(OCC1O[C@@H](OC(=O)c2cc(O)c(O)c(O)c2)[C@@H](OC(=O)c2cc(O)c(O)c(O)c2)[C@@H](OC(=O)c2cc(O)c(O)c(O)c2)[C@@H]1OC(=O)c1cc(O)c(O)c(O)c1)c1cc(O)c(O)c(O)c1` (some centres not stated) was tested. Which Ki did it give?
A: 4120 nM

Q: With `Cc1cc(C)c2c(=O)n(CC(=O)Nc3cccc(F)c3)sc2n1` as the compound, how does the Ki read?
A: 1160 nM

Q: How did the Ki turn out when `O=C1C(Cl)=C(N2CCCCC2)C(=O)C(Cl)=C1c1cnc(N2CCCCC2)s1` was run?
A: 630 nM

Q: Which Ki does the source give for `CCc1c(C(=O)Nc2ccccc2)c(C)[nH]c(=S)c1C#N` here?
A: 10500 nM

Q: Which Ki does the source give for `CC(NC(=O)c1sc2cc([N+](=O)[O-])ccc2c1Cl)C(C)(C)C` (configuration not stated) here?
A: 960 nM

Q: Which Ki does the source give for `O=c1c2ccccc2sn1-c1cc(S(=O)(=O)N2CCOCC2)ccc1N1CCCC1` here?
A: 440 nM

Q: With `Cc1ccc(NC(=O)Cn2sc3nc(C)cc(C)c3c2=O)c(Cl)c1` as the compound, how does the Ki read?
A: 470 nM

Q: Which Ki does the source give for `O=c1c2ccccc2sn1-c1ccccc1` here?
A: 300 nM

Q: `CC(=O)N1CC[n+]2c(-c3ccc([N+](=O)[O-])cc3)csc21` was tested. Which Ki did it give?
A: 7170 nM

Q: Which Ki does the source give for `CN(C)c1ncc(C2=C(Cl)C(=O)C(N3CCCC3)=C(Cl)C2=O)s1` here?
A: 790 nM

Q: How did the Ki turn out when `CCN1/C(=C/C(C)=C/c2sc3ccccc3[n+]2CC)Sc2ccccc21` was run?
A: 5740 nM

Q: For `O=c1c2ccccc2sn1-c1ccc(S(=O)(=O)N2CCCC2)cc1`, which Ki is on record?
A: 950 nM

Q: With `CC(=O)N(O)CCCCCNC(=O)CCC(=O)N(O)CCCCCNC(=O)CCC(=O)N(O)CCCCCN` as the compound, how does the Ki read?
A: 3840 nM

Q: For `O=C(O)C[C@@H]1C(=O)O[C@@H]2C(COC(=O)c3cc(O)c(O)c(O)c3)O[C@@H](OC(=O)c3cc(O)c(O)c(O)c3)[C@@H](OC(=O)c3cc(O)c(O)c4c3[C@H]1[C@H](O)C(=O)O4)[C@H]2OC(=O)c1cc(O)c(O)c(O)c1` (some centres not stated), which Ki is on record?
A: 5370 nM

Q: `O=C(NCCCN1CCOCC1)c1sc2cc([N+](=O)[O-])ccc2c1Cl` was tested. Which Ki did it give?
A: 2050 nM

Q: `CCN=c1scc(C)n1/N=C/c1ccc(O)c(O)c1O` was tested. Which Ki did it give?
A: 4330 nM

Q: `O=C(Cc1csc(N2CCOCC2)n1)N/N=C/c1ccc(O)c(O)c1O` was tested. Which Ki did it give?
A: 4600 nM

Q: How did the Ki turn out when `O=C1CCC(=O)N(O)CCCCCNC(=O)CCC(=O)N(O)CCCCCNC(=O)CCC(=O)N(O)CCCCCN1` was run?
A: 1930 nM

Q: Which Ki does the source give for `CN=c1scc(C)n1/N=C/c1ccc(O)c(O)c1O` here?
A: 2640 nM

Q: `O=C(COc1ccccc1C(=O)N/N=C\c1ccc(O)c(O)c1)N/N=C/c1ccc(O)c(O)c1` was tested. Which Ki did it give?
A: 3980 nM

Q: How did the Ki turn out when `CCC(=O)NC1=C(Cl)C(=O)C(NC(=O)CC)=C(Cl)C1=O` was run?
A: 760 nM

Q: With `COc1ccc(C2=CC(=O)C=CC2=O)cc1` as the compound, how does the Ki read?
A: 1840 nM

Q: For `Cc1[nH]n(-c2ccccc2)c(=S)c1C=NCCCN=Cc1c(C)[nH]n(-c2ccccc2)c1=S`, which Ki is on record?
A: 2630 nM

Q: Which Ki does the source give for `C/C(=N/NC(=O)c1cc(O)c(O)c(O)c1)c1ccc([N+](=O)[O-])cc1` here?
A: 18700 nM

Q: How did the Ki turn out when `COc1ccc(OC)c(CCNC(=O)Cn2sc3nc(C)cc(C)c3c2=O)c1` was run?
A: 1140 nM

Q: Which Ki does the source give for `O=C(O[C@@H]1OC2COC(=O)c3cc(O)c(O)c(O)c3-c3c(cc(O)c(O)c3O)C(=O)O[C@@H]([C@H]1O)[C@@H]2O)c1cc(O)c(O)c(O)c1` here?
A: 2980 nM

Q: Which Ki does the source give for `CN1CCN(C2=C(Cl)C(=O)C(c3cnc(N4CCCCC4)s3)=C(Cl)C2=O)CC1` here?
A: 10 nM

Q: How did the Ki turn out when `CCOC(=O)c1sc(NC(=O)CSc2nnc(Cc3ccccc3)o2)c(C#N)c1C` was run?
A: 1330 nM

Q: With `COc1ccccc1-n1c(-c2cc(-c3ccco3)[nH]n2)n[nH]c1=S` as the compound, how does the Ki read?
A: 13200 nM

Q: `CCCCn1c(-c2csc(C(C)C)c2)n[nH]c1=S` was tested. Which Ki did it give?
A: 10700 nM

Q: With `CCC(=O)NC(c1ccc(C)cc1)c1cc([N+](=O)[O-])c2cccnc2c1O` (configuration not stated) as the compound, how does the Ki read?
A: 2070 nM

Q: `CCOC(=O)C1CCCN(C(=O)Cn2sc3nc(C)cc(C)c3c2=O)C1` (configuration not stated) was tested. Which Ki did it give?
A: 2100 nM

Q: For `Cc1ccc(-n2sc3ccccc3c2=O)cc1S(=O)(=O)N1CCCCC1`, which Ki is on record?
A: 570 nM

Q: Which Ki does the source give for `Cc1cc(Cl)ccc1N=c1ssnc1Cl` here?
A: 4130 nM

Q: Which Ki does the source give for `COC(=O)CCC(=O)Nc1sc(C)c(C)c1C(N)=O` here?
A: 4090 nM

Q: Which Ki does the source give for `O=c1c2ccccc2sn1-c1cc(S(=O)(=O)N2CCOCC2)ccc1N1CCOCC1` here?
A: 110 nM

Q: How did the Ki turn out when `COC(=O)c1c(-c2ccc(C(C)(C)C)cc2)csc1NC(=O)C1C2CCC(O2)C1C(=O)O` (configuration not stated) was run?
A: 7550 nM

Q: With `O=[N+]([O-])c1ccc(Sc2cccc[n+]2[O-])c2nonc12` as the compound, how does the Ki read?
A: 820 nM

Q: How did the Ki turn out when `CN(C)S(=O)(=O)c1cccc(-n2sc3ccccc3c2=O)c1` was run?
A: 150 nM

Q: How did the Ki turn out when `Cc1[nH]n(-c2ccccc2)c(=S)c1C=Nc1cccc([N+](=O)[O-])c1` was run?
A: 1590 nM

Q: `CCN(CC)S(=O)(=O)c1cccc(-c2n[nH]c(=S)n2/N=C/c2ccc(C(=O)OC)cc2)c1` was tested. Which Ki did it give?
A: 5820 nM

Q: With `COCCCNC(=O)c1ccc2c3c(onc13)-c1ccccc1C2=O` as the compound, how does the Ki read?
A: 3630 nM

Q: With `CCCNC(=O)Cn1sc2nc(C)cc(C)c2c1=O` as the compound, how does the Ki read?
A: 930 nM

Q: Which Ki does the source give for `CN(C)[C@@H]1C(=O)C(C(=O)NCN2CCCC2)=C(O)[C@@]2(O)C(=O)C3=C(O)c4c(O)cccc4[C@@](C)(O)C3CC12` (some centres not stated) here?
A: 7070 nM

Q: How did the Ki turn out when `Cc1cc(C)c2c(=O)n(CC(=O)Nc3ccc(Cl)cc3)sc2n1` was run?
A: 1450 nM

Q: `NS(=O)(=O)c1ccc(CNC(=O)/C=C/c2ccco2)cc1` was tested. Which Ki did it give?
A: 10600 nM

Q: Which Ki does the source give for `CC(=O)OCCCNc1cc(Sc2nc3ccccc3s2)c2nonc2c1[N+](=O)[O-]` here?
A: 920 nM

Q: `Cc1ccccc1-n1sc2cc(F)ccc2c1=O` was tested. Which Ki did it give?
A: 430 nM

Q: How did the Ki turn out when `Cc1cccc(N2CCN(C(=O)Cn3sc4nc(C)cc(C)c4c3=O)CC2C)c1` (configuration not stated) was run?
A: 1270 nM

Q: How did the Ki turn out when `CCOc1ccccc1-c1c2cc(O)c(=O)cc-2oc2cc(O)c(O)cc12` was run?
A: 930 nM

Q: For `CCN(CC)S(=O)(=O)c1cccc(C(=O)N/N=C/c2ccc(O)c(O)c2O)c1`, which Ki is on record?
A: 2030 nM

Q: How did the Ki turn out when `NS(=O)(=O)c1ccc(N/N=C/c2ccc(O)c(O)c2O)c([N+](=O)[O-])c1` was run?
A: 630 nM

Q: Which Ki does the source give for `CC1(C)OC(=O)C(=Cc2ccc(-c3ccc(S(N)(=O)=O)cc3)o2)C(=O)O1` here?
A: 2870 nM
